Biological target: T1, MMP9 mediated gelatinase activity (Rattus norvegicus, UniProt P50282)
T1 construct: from tissue; host or cells: liver cryosections of female Lewis rats
Assay: In situ zymography of gelatinase activity in livers of SCW-induced rats
Type: in vivo
Design: reduction of liver gelatinase activity: reference not given here
Conditions: for Intensity Mean / Intensity Rat 1 / Intensity Rat 2 / Intensity Rat 3: Day 25-28, liver
Text: In situ zymography provides an alternative approach to assess active MMP9 in tissues (J Histochem Cytochem; 2004; 52:711-722). Tissue sections are overlain with fluorescein-conjugated gelatin wherein the conjugation is sufficiently dense to cause the fluorescein to be dye-quenched (DQ). Proteolytic degradation of the DQ-gelatin releases the fluorescein from the quenching effect giving rise to bright green fluorescence at the site of degradation. Because in situ zymography requires the use of frozen sections, calcified tissues are problematic. However, an additional feature of the SCW arthritis model is the development of hepatic granulomatous disease (J Immunol; 1986; 137:2199-2209), and MMP9 reportedly plays a role in macrophage recruitment in the granulomas response to mycobacteria (Infect Immun; 2006; 74:6135-6144). Consequently, granulomatous livers from SCW-treated rats were assessed for active MMP9 by in situ zymography.
As described above, Female Lewis (LEW/N) rats, 5-6 weeks of age (80-100 g) were injected (i.p.) with saline or SCW PG-PS. On day 28, when the granulomatous response was well established, animals were sacrificed and livers were frozen in OCT cryo-sectioning medium and 10 μm sections were cut on a Cryome HM 500 M cryotome and mounted on glass microscope slides. Sections were air dried briefly. MMP9 was confirmed as the source of the gelatinase activity in the liver by treating liver sections with monoclonal antibodies directed against the active site of the two major gelatinases MMP9 and MMP2. Liver sections overlain with 50 μL of 100 μg/mL neutralizing mouse monoclonal antibodies directed against MMP9 (Calbiochem, clone 6-6B), or MMP2 (Millipore, clone CA-4001), or with PBS for 1 hr at room temperature. Tissues were rinsed once with PBS, blotted, and briefly air dried and then overlain with DQ-gelatin (Invitrogen) dissolved to 1 mg/mL in deionized water and then diluted 1:10 in 1% wt/vol low gelling point agarose type VII (Sigma) in PBS. The sections were covered with coverslips, incubated in the dark at room temperature for 20 min, and imaged on an Olympus IX80 inverted microscope fitted with fluorescence optics, using SlideBook™ imaging software (Intelligent Imaging Innovations, Inc., Philadelphia, Pa.; version 5.0). Fluorescence intensity was determined (Table 8). When compared to a saline-treated rat, gelatinase activity was abundantly expressed in granulomatous liver sections obtained from a rat with SCW arthritis.
Next, liver in situ zymography was used to assess the relative presence of active MMP9 in rats dosed with vehicle vs. Compound α. Female Lewis (LEW/N) rats, 5-6 weeks of age (80-100 g) were injected (i.p.) with saline or SCW PG-PS. Commencing on day 25, randomized groups of rats (n=3 rats/group) received vehicle or 20 or 50 mg/kg Compound α BID by oral gavage.
Vehicle consisted of an aqueous mixture containing 2% (v:v) N-methylpyrrolidone, 5% (v:v) glycerine, and 20% (w:v) captisol. Treatment continued daily through the morning of day 28. Four hrs after the AM dose on day 28, rats were sacrificed and livers assessed for active MMP9 by in situ zymography (Table 9). Gelatinase activity was increased markedly in SCW-induced rats, but activity was reduced by approximately 80% in animals treated with 50 mg/kg Compound α.

T1 sequence (P50282 108-708): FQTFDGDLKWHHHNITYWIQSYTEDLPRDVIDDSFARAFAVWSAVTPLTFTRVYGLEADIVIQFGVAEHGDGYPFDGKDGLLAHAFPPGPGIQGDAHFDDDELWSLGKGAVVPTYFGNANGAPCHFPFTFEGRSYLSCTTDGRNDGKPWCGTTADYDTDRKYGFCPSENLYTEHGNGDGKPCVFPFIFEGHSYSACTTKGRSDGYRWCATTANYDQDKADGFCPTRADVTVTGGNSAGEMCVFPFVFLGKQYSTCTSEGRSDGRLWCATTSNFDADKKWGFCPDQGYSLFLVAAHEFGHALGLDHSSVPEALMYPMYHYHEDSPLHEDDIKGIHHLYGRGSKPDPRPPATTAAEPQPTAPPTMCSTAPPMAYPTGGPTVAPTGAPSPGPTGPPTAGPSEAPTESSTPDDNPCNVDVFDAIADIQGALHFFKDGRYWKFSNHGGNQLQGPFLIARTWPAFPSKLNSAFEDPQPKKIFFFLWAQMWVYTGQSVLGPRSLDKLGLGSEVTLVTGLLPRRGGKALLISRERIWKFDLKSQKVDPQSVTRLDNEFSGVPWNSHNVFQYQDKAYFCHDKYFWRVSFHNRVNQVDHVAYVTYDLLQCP

Cc1nc(C)c(-c2csc(Nc3cc(S(N)(=O)=O)ccc3OC(C)C)n2)s1 [Compound α, 3-(2′,4′-Dimethyl-[4,5′]bithiazolyl-2-ylamino)-4-isopropoxy-benzenesulfonamide.HBr]
Intensity Mean (20 mg/kg BID oral): 55.2 RLU × 10^6 | Intensity Rat 1 (20 mg/kg BID oral): 43.0 RLU × 10^6 | Intensity Rat 2 (20 mg/kg BID oral): 69.0 RLU × 10^6 | Intensity Rat 3 (20 mg/kg BID oral): 53.7 RLU × 10^6 | reduction of liver gelatinase activity (50 mg/kg BID oral, Day 25-28): approximately 80% | Intensity Mean (50 mg/kg BID oral): 11.1 RLU × 10^6 | Intensity Rat 1 (50 mg/kg BID oral): 3.2 RLU × 10^6 | Intensity Rat 2 (50 mg/kg BID oral): 25.6 RLU × 10^6 | Intensity Rat 3 (50 mg/kg BID oral): 4.5 RLU × 10^6
